Reference: PMC9412555, “Benzothiazole Derivatives Endowed with Antiproliferative Activity in Paraganglioma and Pancreatic Cancer Cells: Structure–Activity Relationship Studies and Target Prediction Analysis” (Pharmaceuticals, 2022)
Values belong to the compound of their own block, whether it stands above or below them.

Legend:
[1] = system: pancreatic (AsPC-1, BxPC-3, and Capan-2) and paraganglioma (PTJ64i and PTJ86i) cancer cell lines; experiment: One-point MTT screening at 75 µM in cancer cell lines; type: cell-based; settings: one-point screening concentration of 75 μM for 72 h, five cancer cell lines
Procedure: (§1) Compounds 4a–p were submitted to a preliminary MTT assay at a one-point screening concentration of 75 μM for 72 h, including 2b as a reference compound (Figure 3). […] The presence of the electron-donating methoxy group decreased the activity of 2b, in both the para and meta positions. […] Specifically, these compounds, namely 4d, 4e, 4f, 4h, 4i, 4j, 4k, 4l, and 4m, were tested at concentrations of 3, 6, 12 and 24 µM for 72 h. In addition, the nine compounds, together with 2b, were tested against human fibroblasts HFF-1, in order to evaluate their selectivity against tumor cells, as compared to normal cells. Effects on cancer or normal cell viability were extrapolated from concentration–response curves and are expressed as IC50 values in Table 2.
(§2) Pancreatic cancer (AsPC-1, BxPC-3, and Capan-2), paraganglioma (PTJ86i and PTJ64i) and normal fibroblast (HFF-1) cell lines were cultured as previously described. All compounds were dissolved in DMSO (stock solutions) and then diluted in culture media to the final working concentrations. In this way, the solutions were completely clear and devoid of any undissolved material by microscopic inspection. […] The effects of compounds 4a-p and 2b on cancer cell viability were tested by an MTT assay (Sigma-Aldrich, St. Louis, MO, USA), as described by Florio et al.. In the initial screening all compounds were tested at a one-point screening concentration of 75 μM for 72 h (five replica wells per each condition). […] For combined treatments, the experimental design was made according to the Chou–Talalay method for drug combination studies, as previously described.
Figure 3 Screening of the effects of novel derivatives (4a–p) on the viability of pancreatic (AsPC-1, BxPC-3, and Capan-2) and paraganglioma (PTJ64i and PTJ86i) cancer cell lines. The lead compound 2b was included as a reference and the histograms show the relative decrease of cancer cell viability observed after treatments, as compared to 2b. Cell viability was assessed by an MTT assay using compounds at 75 µM for 72 h. Data shown are the means ± SD of duplicate experiments with quintuplicate determinations and are calculated as ratios relative to the reference compound 2b (dashed line).

BxPC-3 = experiment: MTT cell viability assay, BxPC-3; type: cell-based; settings: for IC50: BxPC-3 pancreatic cancer, MTT; for IC50 / Inhibition Rate of Cell Viability: 72 h; for Selectivity Index (SI): IC50 in normal (HFF-1) fibroblast cells/IC50 in BxPC-3
Procedure: as §1, §2
(§3) IC50 values were extrapolated from concentration–response curves and calculated using the CompuSyn software. […] Based on this analysis, a CI < 1 indicates synergism, a CI = 1 indicates additive effects and a CI > 1 indicates antagonism. SI values were calculated as previously described. Comparisons of mean values were performed using an unpaired Student’s t-test. For multiple comparisons, a one-way ANOVA followed by Dunnett’s test were employed. A p-value < 0.05 was estimated as statistically significant.

HFF-1 = experiment: MTT cell viability assay, normal fibroblasts HFF-1; type: cell-based, human; settings: 72 h; for IC50: HFF-1 normal cells, MTT
Procedure: All compounds were dissolved in DMSO (stock solutions) and then diluted in culture media to the final working concentrations. […] The effects of compounds 4a-p and 2b on cancer cell viability were tested by an MTT assay (Sigma-Aldrich, St. Louis, MO, USA), as described by Florio et al. [17]. In the initial screening all compounds were tested at a one-point screening concentration of 75 μM for 72 h (five replica wells per each condition).
IC50 values were extrapolated from concentration–response curves and calculated using the CompuSyn software [45]. […] SI values were calculated as previously described [46]. Comparisons of mean values were performed using an unpaired Student’s t-test. For multiple comparisons, a one-way ANOVA followed by Dunnett’s test were employed. A p-value < 0.05 was estimated as statistically significant.

PTJ86i = experiment: MTT cell viability assay, PTJ86i; type: cell-based; settings: for Selectivity Index (SI): IC50 in normal (HFF-1) fibroblast cells/IC50 in PTJ86i; for IC50: PTJ86i paraganglioma, MTT, 72 h
Procedure: as §1, §2, §3

Capan-2 = experiment: MTT cell viability assay, Capan-2; type: cell-based; settings: for IC50: Capan-2 pancreatic cancer, MTT; for IC50 / Inhibition Rate of Cell Viability: 72 h; for Selectivity Index (SI): IC50 in normal (HFF-1) fibroblast cells/IC50 in Capan-2
Procedure: as §1, §2, §3

PTJ64i = experiment: MTT cell viability assay, PTJ64i; type: cell-based; settings: for Selectivity Index (SI): IC50 in normal (HFF-1) fibroblast cells/IC50 in PTJ64i; for IC50: PTJ64i paraganglioma, MTT, 72 h
Procedure: as §1, §2, §3

AsPC-1 = experiment: MTT cell viability assay, AsPC-1; type: cell-based; settings: for IC50: AsPC-1 pancreatic cancer, MTT; for IC50 / Inhibition Rate of Cell Viability: 72 h; for Selectivity Index (SI): IC50 in normal (HFF-1) fibroblast cells/IC50 in AsPC-1
Procedure: as §1, §2, §3

Structure (SMILES): O=C(Nc1ccc(Cl)cc1)C(Sc1nc2cc(Cl)ccc2s1)c1ccccc1 (stereo not shown) [4b, 2-[(5-Chlorobenzo[d]thiazol-2-yl)thio]-N-(4-chlorophenyl)-2-phenylacetamide]
melting point: 178 to 180 °C

Structure (SMILES): O=C(Nc1ccc([N+](=O)[O-])cc1)C(Sc1nc2cc(Cl)ccc2s1)c1ccccc1 (stereo not shown) [4e, 2-[(5-Chlorobenzo[d]thiazol-2-yl)thio]-N-(4-nitrophenyl)-2-phenylacetamide]
effect on cancer cell viability, potency compared with 2b [1]: greater antiproliferative activity than 2b
IC50 (BxPC-3; Homo sapiens): 10.7 µM
Selectivity Index (SI) (BxPC-3): 1.56
IC50 (HFF-1; Homo sapiens): 16.7 µM
Selectivity Index (SI) (PTJ86i): 0.88
IC50 (PTJ86i): 18.9 µM
IC50 (Capan-2; Homo sapiens): 14.1 µM
Selectivity Index (SI) (Capan-2): 1.18
Selectivity Index (SI) (PTJ64i): 1.70
IC50 (PTJ64i): 9.81 µM
melting point: 191 to 193 °C
IC50 (AsPC-1; Homo sapiens, ASPC1): 12.8 µM
Selectivity Index (SI) (AsPC-1): 1.31

Structure (SMILES): COc1cccc(NC(=O)C(Sc2nc3cc(Cl)ccc3s2)c2ccccc2)c1 (stereo not shown) [4g, 2-[(5-Chlorobenzo[d]thiazol-2-yl)thio]-N-(3-methoxyphenyl)-2-phenylacetamide]
effect on cancer cell viability, potency compared with 2b [1]: exception
melting point: 160 to 162 °C

Structure (SMILES): O=C(Nc1ccc(C(F)(F)F)cc1)C(Sc1nc2cc(Cl)ccc2s1)c1ccccc1 (stereo not shown) [4d, 2-[(5-Chlorobenzo[d]thiazol-2-yl)thio]-2-phenyl-N-[4-(trifluoromethyl)phenyl] Acetamide]
effect on cancer cell viability, potency compared with 2b [1]: greater antiproliferative activity than 2b
IC50 (BxPC-3): 3.99 µM
Selectivity Index (SI) (BxPC-3): 2.31
IC50 (HFF-1): 9.23 µM
Selectivity Index (SI) (PTJ86i): 0.74
IC50 (PTJ86i): 12.4 µM
IC50 (Capan-2): 8.97 µM
Selectivity Index (SI) (Capan-2): 1.03
Selectivity Index (SI) (PTJ64i): 1.36
IC50 (PTJ64i): 6.79 µM
IC50 (AsPC-1): 7.66 µM
Selectivity Index (SI) (AsPC-1): 1.20

Structure (SMILES): O=C(Nc1cc([N+](=O)[O-])ccc1Br)C(Sc1nc2cc(Cl)ccc2s1)c1ccccc1 (stereo not shown) [4n, N-(2-Bromo-5-nitrophenyl)-2-[(5-chlorobenzo[d]thiazol-2-yl)thio]-2-phenyl Acetamide]
effect on cancer cell viability, potency compared with 2b [1]: exception

Structure (SMILES): COc1ccc(NC(=O)C(Sc2nc3cc(Cl)ccc3s2)c2ccccc2)cc1 (stereo not shown) [4a, 2-[(5-Chlorobenzo[d]thiazol-2-yl)thio]-N-(4-methoxyphenyl)-2-phenylacetamide]
melting point: 190 °C (dec.)

Structure (SMILES): Nc1ccn([C@@H]2O[C@H](CO)[C@@H](O)C2(F)F)c(=O)n1 [GEM, gemcitabine, reference compound]
Inhibition Rate of Cell Viability (BxPC-3; BxPC-3, GEM 0.1 µM): 65.02%
Inhibition Rate of Cell Viability (BxPC-3; BxPC-3, GEM 1 µM): 64.65%
Inhibition Rate of Cell Viability (BxPC-3; BxPC-3, GEM 10 µM): 62.50%
Inhibition Rate of Cell Viability (Capan-2; Capan-2, GEM 0.1 µM): 26.87%
Inhibition Rate of Cell Viability (Capan-2; Capan-2, GEM 1 µM): 27.22%
Inhibition Rate of Cell Viability (Capan-2; Capan-2, GEM 10 µM): 38.65%
Inhibition Rate of Cell Viability (AsPC-1; AsPC-1, GEM 0.1 µM): 54.21%
Inhibition Rate of Cell Viability (AsPC-1; AsPC-1, GEM 1 µM): 63.25%
Inhibition Rate of Cell Viability (AsPC-1; AsPC-1, GEM 10 µM): 64.63%

Structure (SMILES): O=C(Nc1cccc(Cl)c1)C(Sc1nc2cc(Cl)ccc2s1)c1ccccc1 (stereo not shown) [4h, 2-[(5-Chlorobenzo[d]thiazol-2-yl)thio]-N-(3-chlorophenyl)-2-phenylacetamide]
effect on cancer cell viability, potency compared with 2b [1]: greater antiproliferative activity than 2b
IC50 (BxPC-3; Homo sapiens): 12 µM
IC50 (HFF-1; Homo sapiens): 11.6 µM
IC50 (PTJ86i): 16.6 µM
IC50 (Capan-2; Homo sapiens): 17.7 µM
IC50 (PTJ64i): 7.27 µM
IC50 (AsPC-1; Homo sapiens, ASPC1): 12.2 µM

Now from value to compound, other results behind:

IC50 (BxPC-3; Homo sapiens): 18.6 µM
melting point: 151 to 153 °C
IC50 (AsPC-1; Homo sapiens, ASPC1): 14.8 µM
Structure (SMILES): O=C(Nc1cccc(F)c1)C(Sc1nc2cc(Cl)ccc2s1)c1ccccc1 (stereo not shown) [4i, 2-[(5-Chlorobenzo[d]thiazol-2-yl)thio]-N-(3-fluorophenyl)-2-phenylacetamide]
effect on cancer cell viability, potency compared with 2b [1]: greater antiproliferative activity than 2b
Selectivity Index (SI) (BxPC-3): 0.81
IC50 (HFF-1; Homo sapiens): 15 µM
Selectivity Index (SI) (PTJ86i): 1.28
IC50 (PTJ86i): 11.7 µM
IC50 (Capan-2; Homo sapiens): 28.5 µM
Selectivity Index (SI) (Capan-2): 0.53
Selectivity Index (SI) (PTJ64i): 1.74
IC50 (PTJ64i): 8.6 µM
Selectivity Index (SI) (AsPC-1): 1.01

IC50 (BxPC-3): 9.81 µM
IC50 (AsPC-1): 8.49 µM
Structure (SMILES): O=C(Nc1ccc(Cl)c(Cl)c1)C(Sc1nc2cc(Cl)ccc2s1)c1ccccc1 (stereo not shown) [4m, 2-[(5-Chlorobenzo[d]thiazol-2-yl)thio]-N-(3,4-dichlorophenyl)-2-phenyl Acetamide]
effect on cancer cell viability, potency compared with 2b [1]: greater antiproliferative activity than 2b
Selectivity Index (SI) (BxPC-3): 1.05
IC50 (HFF-1): 10.3 µM
Selectivity Index (SI) (PTJ86i): 0.52
IC50 (PTJ86i): 19.9 µM
IC50 (Capan-2): 13.3 µM
Selectivity Index (SI) (Capan-2): 0.77
Selectivity Index (SI) (PTJ64i): 1.32
IC50 (PTJ64i): 7.84 µM
Selectivity Index (SI) (AsPC-1): 1.22

melting point: 179 to 180 °C
Structure (SMILES): O=C(Nc1ccc(C(F)(F)F)cc1Br)C(Sc1nc2cc(Cl)ccc2s1)c1ccccc1 (stereo not shown) [4o, N-[2-Bromo-4-(trifluoromethyl)phenyl]-2-[(5-chlorobenzo[d]thiazol-2-yl)thio]-2-phenylacetamide]
effect on cancer cell viability, potency compared with 2b [1]: exception

IC50 (BxPC-3; Homo sapiens): 13.7 µM
IC50 (AsPC-1; Homo sapiens, ASPC1): 14.8 µM
Structure (SMILES): CC(=O)Nc1cccc(NC(=O)C(Sc2nc3cc(Cl)ccc3s2)c2ccccc2)c1 (stereo not shown) [4l, N-(3-Acetamidophenyl)-2-[(5-chlorobenzo[d]thiazol-2-yl)thio]-2-phenylacetamide]
effect on cancer cell viability, potency compared with 2b [1]: greater antiproliferative activity than 2b
Inhibition Rate of Cell Viability (BxPC-3; BxPC-3, 4l 0.5 µM): 6.00%
Inhibition Rate of Cell Viability (BxPC-3; BxPC-3, 4l 5 µM): 9.54%
Inhibition Rate of Cell Viability (BxPC-3; BxPC-3, 4l 50 µM): 70.50%
Selectivity Index (SI) (BxPC-3): 4.91
Inhibition Rate of Cell Viability (HFF-1; HFF-1, 4l 0.5 µM): 0.00%
Inhibition Rate of Cell Viability (HFF-1; HFF-1, 4l 5 µM): 1.00%
Inhibition Rate of Cell Viability (HFF-1; HFF-1, 4l 50 µM): 17.69%
IC50 (HFF-1; Homo sapiens): 67.1 µM
Selectivity Index (SI) (PTJ86i): 3.37
IC50 (PTJ86i): 19.9 µM
Inhibition Rate of Cell Viability (Capan-2; Capan-2, 4l 0.5 µM): 9.34%
Inhibition Rate of Cell Viability (Capan-2; Capan-2, 4l 5 µM): 30.25%
Inhibition Rate of Cell Viability (Capan-2; Capan-2, 4l 50 µM): 43.30%
IC50 (Capan-2; Homo sapiens): 33.8 µM
Selectivity Index (SI) (Capan-2): 1.99
Selectivity Index (SI) (PTJ64i): 6.62
IC50 (PTJ64i): 10.1 µM
Inhibition Rate of Cell Viability (AsPC-1; AsPC-1, 4l 0.5 µM): 13.40%
Inhibition Rate of Cell Viability (AsPC-1; AsPC-1, 4l 5 µM): 18.87%
Inhibition Rate of Cell Viability (AsPC-1; AsPC-1, 4l 50 µM): 42.97%
Selectivity Index (SI) (AsPC-1): 4.54

melting point: 157 to 159 °C
Structure (SMILES): O=C(Nc1cc(C(F)(F)F)ccc1Br)C(Sc1nc2cc(Cl)ccc2s1)c1ccccc1 (stereo not shown) [4p, N-[2-Bromo-5-(trifluoromethyl)phenyl]-2-[(5-chlorobenzo[d]thiazol-2-yl)thio]-2-phenylacetamide]
effect on cancer cell viability, potency compared with 2b [1]: exception

IC50 (BxPC-3; Homo sapiens): 14 µM
IC50 (AsPC-1; Homo sapiens, ASPC1): 9.53 µM
Structure (SMILES): O=C(Nc1cccc(C(F)(F)F)c1)C(Sc1nc2cc(Cl)ccc2s1)c1ccccc1 (stereo not shown) [4j, 2-[(5-Chlorobenzo[d]thiazol-2-yl)thio]-2-phenyl-N-[3-(trifluoromethyl)phenyl]acetamide]
effect on cancer cell viability, potency compared with 2b [1]: greater antiproliferative activity than 2b
IC50 (HFF-1; Homo sapiens): 18.1 µM
IC50 (PTJ86i): 17.5 µM
IC50 (Capan-2; Homo sapiens): 24.2 µM
IC50 (PTJ64i): 11.2 µM
